# Experimental data from US20110195845A1, “Constructs for Expressing Herbicide Tolerance Genes, Related Plants, and Related Trait Combinations” (Dow AgroSciences LLC, priority 2008, published 2011).
# Legend:
# [1] = test system: Agrobacterium tumefaciens C58; assay: Bacterial strain response to glufosinate on minimal media; assay type: cell-based; set-up: key: +++ = Heavy Lawn Growth; ++ = Light lawn growth; + = patchy lawn growth; −− = No Growth; conditions: 48 hrs @ 25 C
# Procedure: (§1) Selected cell lines of Escherichia coli and Agrobacterium tumefaciens were inoculated on minimal media containing incrementally increasing concentrations of Glufosinate (BASTA). The cell lines; BL21-Star (DE3), Top10, DH5α, Agrobacterium tumefaciens C58, and Agrobacterium tumefaciens LBA4404s were initially grown up on complex media. The Escherichia coli strains were grown in LB and the Agrobacterium tumefaciens strains were grown in YEP. Five microliters of bacterial culture was inoculated and dispersed evenly onto minimal media plates containing various concentrations of glufosinate. The concentrations consisted of 0 μg/ml, 250 μg/ml, 500 μg/ml, 1000 μg/ml, 2000 μg/ml, and 4000 μg/ml of BASTA. In addition, the bacterial strains were inoculated onto a plate of complex media as a control—Agrobacterium tumefaciens strains were inoculated on YEP agar plates, and Escherichia coli strains were inoculated on LB agar plates. The plates containing the Escherichia coli strains were incubated at 37° C. for 24 hours. The plates containing the Agrobacterium tumefaciens strains were incubate at 25° C. for 48 hours. […] Table 7 illustrates the capability of the various strains to grow on minimal media containing glufosinate.
# [2] = test system: Agrobacterium tumefaciens LBA4404s; assay: as above; assay type: cell-based; set-up: key: +++ = Heavy Lawn Growth; ++ = Light lawn growth; + = patchy lawn growth; −− = No Growth; conditions: 48 hrs @ 25 C
# Procedure: as §1
# [3] = test system: Escherichia coli BL21-Star (DE3) with CsVMV promoter//PAT (3037); assay: Viral promoter driven complementation on glufosinate, plasmid 3037; assay type: cell-based; conditions: 48 hrs @37 C; further: key: ++++ = Heavy Lawn Growth; +++ = Lawn Growth; ++ = Lots of Distinct Colonies; + = Scattered Colony Growth
# Procedure: Plasmid constructs in which the DSM-2 (v2) and PAT gene coding sequences were expressed, under either the viral promoters CsVMV or the plant promoter AtUbi10, were assayed for complementation on minimal media containing glufosinate. The plasmids 3778 (Rb7 MARv3//AtUbi10 promoter//DSM-2 (v2)//Atu Orf 1 3′UTR), 3779 (Rb7 MARv3//AtUbi10 promoter//PAT//Atu Orf 1 3′UTR), 3264 (CsVMV promoter//DSM-2//Atu Orf 24 3′UTR), 3037 (CsVMV promoter//PAT//Atu Orf 25/26 3′UTR), and 770 (control plasmid containing CsVMV promoter//GUS v3//Atu Orf 24 3′UTR) were transformed into Escherichia coli BL21-Star (DE3) and grown up in complex media. Five microliters of the cultures were plated on minimal media containing increasing concentrations of Glufosinate and incubated at 37° C. for 48 hours.
# [4] = test system: DSM-2 (v2) gene + AAD-12 transformed T1 Arabidopsis; assay: T1 Arabidopsis response to glufosinate applied postemergence; assay type: in vivo, Arabidopsis thaliana; conditions: for % Injury Ave / individuals with % Injury 20-40% / individuals with % Injury <20% / individuals with % Injury >40%: 2 WAT
# Procedure: Seven days after planting (DAP) and again 11 DAP, T1 plants (cotyledon and 2-4-1f stage, respectively) were sprayed with a 0.016% solution of 2,4-D herbicide (456 g ae/L 2,4-D Amine 4, Dow AgroSciences LLC, Indianapolis, Ind.) at a spray volume of 10 ml/tray (703 L/ha) using a DeVilbiss compressed air spray tip to deliver an effective rate of 50 g ae/ha 2,4-D DMA per application. Survivors (plants actively growing) were identified 4-7 days after the final spraying and transplanted individually into 3-inch pots prepared with potting media (Metro Mix 360). Transplanted plants were covered with humidity domes for 3-4 days and placed in a 22° C. growth chamber as before or moved to directly to the greenhouse. Domes were subsequently removed and plants reared in the greenhouse (22±5° C., 50±30% RH, 14 h light:10 dark, minimum 500 μE/m^2s^1 natural+supplemental light) at least 1 day prior to testing for the ability of DSM-2 (v2) to provide glufosinate herbicide resistance.
# T1 plants were then randomly assigned to various rates of glufosinate. For Arabidopsis 140 g ai/ha glufosinate is an effective dose to distinguish sensitive plants from ones with meaningful levels of resistance. Elevated rates were also applied to determine relative levels of resistance (280, 560, or 1120 g ai/ha).
# All glufosinate herbicide applications were applied by track sprayer in a 187 L/ha spray volume. The commercial Liberty™ formulation (200 g ai/L, Bayer Crop Science, Research Triangle Park, N.C.).
# The first Arabidopsis transformations were conducted using DSM-2 (v2) (plant optimized gene). T1 transformants were first selected from the background of untransformed seed using a 2,4-D DMA selection scheme. Over 100,000 T1 seed were screened and 260 2,4-D resistant plants (AAD-12 gene) were identified, equating to a transformation/selection frequency of 0.26% which is slightly higher than the normal range of selection frequency of constructs where AAD-12+2,4-D are used for selection. T1 plants selected above were subsequently transplanted to individual pots and sprayed with various rates of commercial glufosinate herbicide. Table 10 compares the response of DSM-2 (v2) and control genes to impart glufosinate resistance to Arabidopsis T1 transformants. Response is presented in terms of % visual injury 2 WAT. […] Since each T1 is an independent transformation event, one can expect significant variation of individual T1 responses within a given rate. An arithmetic mean and standard deviation is presented for each treatment. Untransformed-wildtype Arabidopsis served as a glufosinate sensitive control. The DSM-2 (v2) gene imparted herbicide resistance to individual T1 Arabidopsis plants. Within a given treatment, the level of plant response varied greatly and can be attributed to the fact each plant represents an independent transformation event. Of important note, at above 140 g ai/ha glufosinate, there were individuals that were unaffected while some were severely affected.
# [5] = 140 g ai/ha glufosinate postemergence
# [6] = 280 g ai/ha glufosinate postemergence
# [7] = 560 g ai/ha glufosinate postemergence
# [8] = 1120 g ai/ha glufosinate postemergence
compound,measurement,setting,value
CP(=O)(O)CCC(N)C(=O)O (centres unmarked) [glufosinate],bacterial growth on minimal media,[1]; 250 μg/ml BASTA,+++
same,bacterial growth on minimal media,[1]; 500 μg/ml BASTA,+++
same,bacterial growth on minimal media,[1]; 1000 μg/ml BASTA,+++
same,bacterial growth on minimal media,[1]; 2000 μg/ml BASTA,++
same,bacterial growth on minimal media,[1]; 4000 μg/ml BASTA,−−
same,bacterial growth on minimal media,[2]; 250 μg/ml BASTA,+++
same,bacterial growth on minimal media,[2]; 500 μg/ml BASTA,++
same,bacterial growth on minimal media,[2]; 1000 μg/ml BASTA,++
same,bacterial growth on minimal media,[2]; 2000 μg/ml BASTA,+
same,bacterial growth on minimal media,[2]; 4000 μg/ml BASTA,−−
same,bacterial growth on minimal media,[3]; 250 μg/ml BASTA,++
same,bacterial growth on minimal media,[3]; 500 μg/ml BASTA,+
same,% Injury Ave,[4]; [5],0.0%
same,individuals with % Injury 20-40%,[4]; [5],0
same,individuals with % Injury <20%,[4]; [5],20
same,individuals with % Injury >40%,[4]; [5],0
same,% Injury Ave,[4]; [6],3.0%
same,individuals with % Injury 20-40%,[4]; [6],1
same,individuals with % Injury <20%,[4]; [6],19
same,individuals with % Injury >40%,[4]; [6],0
same,% Injury Ave,[4]; [7],6.0%
same,individuals with % Injury 20-40%,[4]; [7],0
same,individuals with % Injury <20%,[4]; [7],19
same,individuals with % Injury >40%,[4]; [7],1
same,% Injury Ave,[4]; [8],13.0%
same,individuals with % Injury 20-40%,[4]; [8],1
same,individuals with % Injury <20%,[4]; [8],17
same,individuals with % Injury >40%,[4]; [8],2
same,injury of surviving individuals,"[4]; 1,120 g ai/ha glufosinate, many individuals",little or no injury
